{"source": "patent EP1090646A2", "about": "“Labelled d-mannoheptulose derivatives and their use for imaging of the endocrine pancreas” (UNIVERSITE LIBRE DE BRUXELLES, priority 1999, dated 2001)", "remark": "listed apart in the source", "key": {"[1]": {"tested_on": "isolated pancreatic islets", "experimental": "(§1) Unless otherwise mentioned, the pancreatic pieces or isolated islets were submitted after incubation, to four successive washes conducted at 4°C with a medium containing 20.0 µM cytochalasin B (Sigma, St. Louis, MO, USA).\nIn a further series of experiments, groups of 20 islets each were submitted, after incubation, to 6 successive washes at 4°C in the presence of cytochalasin B (20.0 µM).\nIn the last set of experiments in this series, groups of 20 islets each were incubated for 60 min at 37°C in the presence of D-[^3H]mannoheptulose (0.1 mM), washed thrice at 4°C, further incubated for 60 min at 37°C in the absence of the heptose but presence of cytochalasin B (20.0 µM), again submitted to 4 successive washes, and eventually examined for their radioactive content."}, "[2]": {"tested_on": "tumoral islet cells of the INS-1 line"}, "[3]": {"experimental": "Two preparations of D-[^3H]mannoheptulose were used. The first preparation, used in a few in vitro experiments and in one set of in vivo experiments (animals injected 30 to 60 min before sacrifice), was a product from Nycomed Amersham (Little Chalfont, Buckinghamshire, UK). […] The second preparation used in all other experiments was a product from NEN Life Science Products (Zaventem, Belgium). […] In all experiments conducted in vivo, the animals were injected intravenously with D-[^3H]mannoheptulose (10-40 µCi, and 200 µCi in the case of the rats killed 48 hours after this injection) placed in 300 µl of saline. Except in the animals killed 30-60 min after D-[^3H]mannoheptulose injection, the inoculate also contained 0.1 mM unlabelled D-mannoheptulose.\nIn the in vivo experiments, the STZ rats were either not treated with insulin (animals killed 30-60 min after D-[^3H]mannoheptulose injection) or received twice daily 6 U of insulin (Insulatard, Novo Nordisk, Bagsvaerd, Denmark) subcutaneously, the last of these injections being given at about 5 p.m. on the day before either the injection of D-[^3H]mannoheptulose (animals killed 15 min after D-[^3H]mannoheptulose administration) or the sacrifice of the rats (rats examined 48 hours after D-[^3H]mannoheptulose injection). The animals killed 15 min after the injection of D-[^3H]mannoheptulose received a total of either 5 insulin injections, the first being made at about 5 p.m. on the day after streptozotocin administration, or 6 insulin injections given between the third and fifth day after streptozotocin administration. In the rats killed 48 hours after the injection of D-[^3H]mannoheptulose, the insulin treatment was initiated at 9 a.m. 3 days after streptozotocin administration and continued for a total of 5 days.\nAt stated times after D-[^3H]mannoheptulose intravenous injection, the rats were killed by decapitation, blood was collected in heparinized vials and the plasma separated for measurement of its radioactive content, as well as D-glucose^13 and insulin^14 concentrations. Samples of gastrocnemius muscle, liver, kidney and pancreas were weighed, homogenised in 1.5-3.0 ml of water, and aliquot parts of these homogenates examined for their radioactive content by liquid scintillation.\nAll radioactive data were calculated as dpm/µl of plasma or dpm/mg wet wt. (muscle, liver, kidney, pancreas). In these four tissues, the results were eventually expressed as µl/mg wet wt., by dividing the radioactive content (dpm/mg) by the paired plasma value (dpm/µl)."}, "[4]": {"tested_on": "tumoral islet cells of the RINm5F line"}, "[5]": {"tested_on": "rat pancreatic islets or dispersed islet cells", "conditions": "60 min incubation at 37°C"}, "[6]": {"conditions": "one day after intraperitoneal injection", "experimental": "Female Wistar rats (220-230 g body wt.) were injected intravenously with streptozotocin (0.25 µmol/g body wt.) on day zero. Eight to nine days later, they were transplanted with 1,500-6,000 islets prepared by the collagenase procedure (2) from rats of the same sex and strain (Iffa Credo, L'Arbresle, France). The islets were placed (1,500 islets per module) in 1-4 implantation modules (Statice Santé, Besançon, France), which were inserted, under pentobarbital anaesthesia (0.5-0.6 µmol/g body wt.; Nembutal, Sanofi, Brussels, Belgium), into the peritoneal cavity. The modules were equipped with a 20 µm thick polycarbonate membrane (Whatman, Maidstone, Kent, UK) with 6 x 10^8 pores (diameter : 50 nm) per cm^2. The glycemia of the rats was monitored in blood samples collected from the severed end of the tail.\nD-[^3H]mannoheptulose (100 µCi in 0.3 ml saline containing 0.1 mM unlabelled D-mannoheptulose) was injected intraperitoneally and the animals killed by decapitation 24 hours later after a last blood sampling from the severed end of the tail had been obtained for measurement of glycemia. The blood collected after decapitation in heparinized vials was used for measurements of radioactivity in aliquots of blood, plasma and erythrocytes, as well as for determination of plasma D-glucose and insulin concentration. Samples of the liver, gastrocnemius muscle and kidney, as well as the whole pancreas, were homogenised in 1.5 ml H2O, aliquot parts of the homogenates being used for DNA and radioactive measurements. The fluid present in the implantation device was aspirated and also examined for its radioactive content. Thereafter, the implantation device was repeatedly frozen and thawn in 0.4 ml H2O, aliquot parts of this extract being then again used for both DNA and radioactive determinations.\nThe methods used to measure DNA content (3), glycemia (Glycotronic C; Macherey-Nagel, Düren, Germany), plasma D-glucose (4) and insulin (5) concentrations were previously described in the cited references."}, "[7]": {"tested_on": "pieces of pancreas", "experiment": "Apparent distribution space in pieces of pancreas from control and STZ rats", "conditions": "for apparent distribution space in the presence of D-glucose relative to its absence: D-glucose 8.3 mM; for final distribution space relative to the initial incubation medium radioactive content: after the two successive incubations", "experimental": "as §1\nIn the next series of experiments, the possible uptake of D-[^3H]mannoheptulose was compared to that of its hexaacetate ester in pieces of pancreas from normal rats (Figure 2).\nIn the last set of experiments in this series, pieces of pancreas from either normal or STZ rats were first incubated for 60 min at 37°C in the presence of 8.3 mM D-glucose, then submitted to 3 washes at 4°C in the presence of the hexose (8.3 mM) and cytochalasin B (20.0 µM), further incubated for 60 min at 37°C, still in the presence of D-glucose and the mould metabolite, and eventually submitted to 4 washes at 4°C prior to measurement of their radioactive content."}, "[8]": {"conditions": "up to the 60th min after injection"}}, "note": "Where two headings read alike, the source gives them in different places.", "data": [{"smiles": "[3H][C@@](O)(CO)[C@@H](O)[C@H](O)[C@@H](O)C=O", "note": "[D-[5-^3H]glucose, reference compound]", "values": [{"measurement": "apparent distribution space after incubation at 4°C relative to 37°C", "setting": "[1]; 8.3 mM, 30 min, 6 washes", "value": "55.5 ± 8.3", "unit": "%"}]}, {"smiles": "[3H][C@@](O)([C@H](O)CO)[C@H](O)[C@H](O)C(=O)CO", "note": "[D-[^3H]mannoheptulose]", "values": [{"measurement": "apparent distribution space relative to the intracellular 3HOH space", "setting": "[2]", "value": "~9", "unit": "%"}, {"measurement": "apparent distribution space", "setting": "[1]; 0.1 mM, 10-120 min incubation at 37°C, only 3 washes at 4°C with cytochalasin B 20.0 µM", "value": "≥ 5.5", "unit": "nl/islet"}, {"measurement": "apparent distribution space in the presence of D-glucose relative to reference value (no D-glucose)", "setting": "[1]; 0.1 mM, 30 or 120 min at 37°C, D-glucose 8.3 mM, 3 washes", "value": "161.4 ± 23.7", "unit": "%"}, {"measurement": "increase of apparent distribution space between the 15th and 120th min of incubation", "setting": "[1]; 0.1 mM, 37°C, 8.3 mM D-glucose, 6 washes", "value": "73.5 ± 30.3", "unit": "%"}, {"measurement": "apparent distribution space relative to that of D-[5-3H]glucose (8.3 mM)", "setting": "[1]; 0.1 mM, 30 min at 37°C, absence of D-glucose, 6 washes", "value": "77.3 ± 9.4", "unit": "%"}, {"measurement": "final radioactive content of islets first incubated with 8.3 mM D-glucose relative to absence of the hexose", "setting": "[1]; 0.1 mM, 60 min 37°C, washes, further 60 min with cytochalasin B 20.0 µM", "value": "168.5 ± 19.1", "unit": "%"}, {"measurement": "final radioactive content with cytochalasin B in the first incubation medium containing 8.3 mM D-glucose, relative to reference value", "setting": "[1]; 0.1 mM, cytochalasin B 20.0 µM, 60 min 37°C then second 60 min incubation", "value": "103.7 ± 14.7", "unit": "%"}, {"measurement": "radioactive content of the pancreatic gland relative to paired plasma value, STZ rats as % of mean control value", "setting": "[3]; 15-2880 min after intravenous injection, all available data pooled", "value": "81.6 ± 4.2", "unit": "%"}, {"measurement": "liver/plasma radioactive ratio, STZ rats as % of normal rats", "setting": "[3]; STZ animals not treated with insulin, tracer amount only, no unlabelled heptose", "value": "56.1 ± 3.3", "unit": "%"}, {"measurement": "paired ratio liver/plasma radioactivity, STZ rats as % of control rats", "setting": "[3]; insulin-treated STZ rats (n = 11)", "value": "109.5 ± 8.3", "unit": "%"}, {"measurement": "kidney radioactive content relative to paired plasma value, STZ rats as % of normal rats", "setting": "[3]; rat, in vivo", "value": "68.1 ± 6.5", "unit": "%"}, {"measurement": "paired ratio muscle/plasma radioactivity, STZ rats as % of control rats", "setting": "[3]; rat, in vivo", "value": "87.7 ± 6.2", "unit": "%"}, {"measurement": "radioactive content of the pancreatic gland relative to paired plasma value, STZ rats as % of mean control value", "setting": "[3]; results at 15 min not taken into account", "value": "77.9 ± 5.6", "unit": "%"}, {"measurement": "muscle/liver ratio", "setting": "[3]; [8]", "value": "≤ 17.00 ± 1.17", "unit": "%"}, {"measurement": "paired pancreas/muscle ratio", "setting": "[3]; [8]", "value": "125.71 ± 7.83", "unit": "%"}, {"measurement": "pancreas/liver ratio", "setting": "[3]; [8]", "value": "21.26 ± 1.07", "unit": "%"}, {"measurement": "radioactive content of the transplanted islets relative to that found in the pancreas", "setting": "60 min after the intravenous injection", "value": "about 10 times"}, {"measurement": "radioactive content in the liver and transplanted islets relative to the pancreatic gland", "setting": "one hour after intravenous injection", "value": "5-8 times"}, {"measurement": "apparent distribution space relative to the intracellular 3HOH space", "setting": "[4]", "value": "about 3%"}, {"measurement": "apparent intracellular distribution space relative to the intracellular 3HOH space", "setting": "[5]", "value": "~50", "unit": "%"}, {"measurement": "calculated radioactive content of the transplanted islets (dpm/mg wet wt.) relative to paired plasma radioactive content (dpm/µl)", "setting": "[6]", "value": "6.49 ± 1.27"}, {"measurement": "paired islet/pancreas ratio", "setting": "[6]", "value": "11.59 ± 0.03"}, {"measurement": "radioactive content calculated for the transplanted islets", "setting": "[6]", "value": "332.7 ± 30.7", "unit": "dpm/mg wet weight"}, {"measurement": "radioactive content of the kidney", "setting": "[6]", "value": "51.0 ± 0.9", "unit": "dpm/mg wet weight"}, {"measurement": "radioactive content of the liver", "setting": "[6]", "value": "64.5 ± 6.4", "unit": "dpm/mg wet weight"}, {"measurement": "radioactive content of the muscle", "setting": "[6]", "value": "28.9 ± 7.8", "unit": "dpm/mg wet weight"}, {"measurement": "radioactive content of the pancreas", "setting": "[6]", "value": "28.7 ± 2.6", "unit": "dpm/mg wet weight"}, {"measurement": "volume of distribution, as judged from the plasma radioactive content", "setting": "[6]; STZ diabetic rats with transplanted islets", "value": "10.0 ± 2.2", "unit": "ml/g body weight"}, {"measurement": "apparent distribution space in STZ rats relative to control value", "setting": "[7]; 0.1 mM, 10 to 60 min at 37°C, 8.3 mM D-glucose, overall mean", "value": "89.2 ± 3.6", "unit": "%"}, {"measurement": "apparent distribution space in the presence of cytochalasin B relative to reference value (no cytochalasin B)", "setting": "[7]; 0.1 mM, 60 min, 8.3 mM D-glucose, cytochalasin B 20.0 µM, pooled control and STZ rats", "value": "101.1 ± 4.1", "unit": "%"}, {"measurement": "apparent distribution space after two successive incubations relative to that after first incubation and immediate washes", "setting": "[7]; 0.1 mM, STZ rats", "value": "9.4 ± 0.4", "unit": "%"}, {"measurement": "apparent distribution space after two successive incubations relative to that after first incubation and immediate washes", "setting": "[7]; 0.1 mM, control rats", "value": "14.4 ± 0.4", "unit": "%"}, {"measurement": "ratio between the mean values of apparent distribution space after 60/10 min incubation", "setting": "[7]; 0.1 mM, normal rats, 37°C, 8.3 mM D-glucose", "value": "1.36 ± 0.16"}, {"measurement": "final distribution space when the first incubation was conducted at 4°C relative to 37°C", "setting": "[7]; STZ rats", "value": "38.0 ± 3.9", "unit": "%"}, {"measurement": "apparent distribution space in the presence of D-glucose relative to its absence", "setting": "[7]; STZ rats, 0.1 mM, 60 min", "value": "83.7 ± 4.5", "unit": "%"}, {"measurement": "final distribution space relative to the initial incubation medium radioactive content", "setting": "[7]; STZ rats", "value": "1.34 ± 0.11", "unit": "%"}, {"measurement": "final distribution space relative to the initial incubation medium radioactive content", "setting": "[7]; control animals", "value": "1.78 ± 0.10", "unit": "%"}, {"measurement": "final distribution space when the first incubation was conducted at 4°C relative to 37°C", "setting": "[7]; control rats", "value": "36.9 ± 4.2", "unit": "%"}, {"measurement": "apparent distribution space in the presence of D-glucose relative to its absence", "setting": "[7]; control rats, 0.1 mM, 60 min", "value": "106.7 ± 6.5", "unit": "%"}]}, {"smiles": "[3H]O[3H]", "note": "[^3HOH, reference compound]", "values": [{"measurement": "apparent distribution space after two successive incubations relative to that after first incubation and immediate washes", "setting": "[7]; normal or STZ rats pooled (n = 16), second 60 min incubation with D-glucose and cytochalasin B", "value": "no more than 1.8 ± 0.4%"}]}]}
